Laboratory results as given in patent US12630528B2, “Amino aryl derivative useful as diacylglycerol acyltransferase 2 inhibitor and use thereof” (LG CHEM, LTD., priority 2019, dated 2026).

These molecules were tested against T1, human DGAT2 (Homo sapiens, UniProt Q96PD7) (assay: DGAT2 enzyme activity inhibition, Phospholipid FlashPlate SPA). Details: recombinant human DGAT2 membrane protein from Sf-21 cells; inhibition of [14C]-TG production; 37° C.
T1 construct: FLAG (DYKDDDDK); made in house; host or cells: Sf-21 insect cells (BacPAK baculovirus system); membrane fraction used
T1 sequence (Q96PD7 1-388): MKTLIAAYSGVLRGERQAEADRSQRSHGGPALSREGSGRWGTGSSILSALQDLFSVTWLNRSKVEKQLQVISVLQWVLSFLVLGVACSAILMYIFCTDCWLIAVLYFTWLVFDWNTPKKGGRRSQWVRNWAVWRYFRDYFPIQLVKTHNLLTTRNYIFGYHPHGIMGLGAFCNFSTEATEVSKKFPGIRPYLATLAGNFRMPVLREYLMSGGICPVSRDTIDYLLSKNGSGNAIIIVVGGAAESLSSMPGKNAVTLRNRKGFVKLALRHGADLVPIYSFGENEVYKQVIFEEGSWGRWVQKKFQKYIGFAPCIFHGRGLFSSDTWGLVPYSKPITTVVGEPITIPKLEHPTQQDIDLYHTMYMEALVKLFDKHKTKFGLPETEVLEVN
Type: biochemical
Description: In order to prepare the pBacPAK9-DGAT2, which is DGAT2 expression vector, the human DGAT2 gene amplified by polymerase chain reaction (PCR) was cloned into the EcoR1 and Xho1 sites of the pBacPAK9 (clonctech) vector. The nucleotide sequence of the primers used in PCR was the forward primer 5′ […] (SEQ. ID. NO: 2). The composition of the reaction solution was to contain 50 ng of cDNA clone (OriGene), 200 μM of dATP, dCTP, dTTP, dGTP, 200 nM of each primer, 1 unit of Tag DNA Polymerase (Toyobo), 1×PCR buffer, and the final volume was adjusted to 20 μl. The reaction conditions were denatured at 95° C. for 5 minutes, followed by 30 times of 94° C. for 20 seconds, 60° C. for 20 seconds, and 72° C. for 90 seconds, followed by further reaction at 72° C. for 7 minutes.
Recombinant human DGAT2 protein was expressed in Sf-21 cells, which are insect cells, by using the BacPack baculovirus expression system (Clontech). The brief manufacturing process is as follows. First, the pBacPAK9-DGAT2 expression vector was transfected with BacPAK6 virus DNA (Bsu36I digest) into sf21 cells using Bacfectin to prepare a recombinant DGAT2 expressing baculovirus. The thus prepared baculovirus was infected with Sf-21 cells at 10 MOI (multiplicity of infection), and after 72 hours, infected insect cells were collected and membrane proteins were isolated. For membrane protein separation, the cell pellet was dissolved in a sucrose solution containing 250 mM sucrose, 10 mM Tris (pH 7.4), and 1 mM ethylenediamine-tetraacetic acid (EDTA), and then homogenized by using a dounce homogenizer, and the supernatant was taken by centrifuging at 600×g for 15 minutes, and centrifuged at 100,000×g for 1 hour to discard the supernatant, and the remaining pellet was resuspended in 20 mM HEPES buffer (pH 7.4). The prepared DGAT2 overexpressing membrane protein was dispensed in 100 μl and stored at −80° C. until use. Protein concentration was quantified by using the BCA Protein Assay Kit (Thermo Scientific).
In vitro DGAT2 analysis was performed using a Phospholipid Flash Plate (PerkinElmer) based on the principle of SPA (Scintilation Proximity Assay). First, DGAT2 inhibition compounds serially diluted 5 times from 3 nM to 10 μM (final concentration, 1% DMSO) were mixed in a buffer solution containing 2 μg DGAT2-membrane protein and 20 mM HEPES, 20 mM MgCl2, 1 mg/mL BSA, 50 μM 1,2 sn-oleoyl glycerol (Sigma), put in a 96-well flash plate (FlashPlate) and reacted at 37° C. for 20 minutes, and then 1 μM [14C] ole oil CoA (PerkinElmer, NEC651050UC) was added to be a final volume of 100 μL and further reacted at 37° C. for 15 minutes. After the enzymatic reaction was completed, 100 μL of isopropanol was added, the plate was sealed with a film, and the plate was shaken slowly in a plate shaker. The next day, the amplified scintillation signal (cpm) in Topcounter (Packard) was measured to measure the degree of production of [14C]-labeled triacyl glycerol (TG) as a reaction product. The measured value when the compound was not treated was used as a positive control, and the measured value of the compound treated group was calculated as a relative % to measure the inhibition effect of the compound on TG production.

SMILES | IC50 [nM]
CCOc1ccccc1O[C@@H]1CCCN(c2cncc(Nc3nc4cc(CC(C)(C)C(=O)O)ccc4o3)n2)C1 [Example 14, (R)-3-(2-((6-(3-(2-ethoxyphenoxy)piperidin-1-yl)pyrazin-2-yl)amino)benzo[d]oxazol-5-yl)-2,2-dimethylpropanoic Acid] | 3100
CCOc1ccccc1O[C@@H]1CCCN(c2cncc(Nc3ccc(C(=O)O)cn3)n2)C1 [Example 32, (R)-6-((6-(3-(2-ethoxyphenoxy)piperidin-1-yl)pyrazin-2-yl)amino)nicotinic Acid] | > 10000
CCOc1ccccc1O[C@@H]1CCCN(c2cncc(Nc3nc4ccc(C(C)(C)C(=O)O)cc4o3)n2)C1 [Example 17, (R)-2-(2-((6-(3-(2-ethoxyphenoxy)piperidin-1-yl)pyrazin-2-yl)amino)benzo[d]oxazol-6-yl)-2-methylpropanoic Acid] | 1300
CCOc1ccccc1O[C@@H]1CCCN(c2cncc(Nc3ccc(-c4ccccc4)cn3)n2)C1 [Example 40, (R)-6-(3-(2-ethoxyphenoxy)piperidin-1-yl)-N-(5-phenylpyridin-2-yl)pyrazin-2-amine] | 1700
CCOc1ccccc1O[C@@H]1CCCN(c2cncc(Nc3ccc(CC(=O)O)cn3)n2)C1 [Example 36, (R)-2-(6-((6-(3-(2-ethoxyphenoxy)piperidin-1-yl)pyrazin-2-yl)amino)pyridin-3-yl)acetic Acid] | > 10000
CCOc1ccccc1O[C@@H]1CCCN(c2cncc(Nc3cc(-c4cccc(CCC(=O)O)c4)ccn3)n2)C1 [Example 46, (R)-3-(3-(2-((6-(3-(2-ethoxyphenoxy)piperidin-1-yl)pyrazin-2-yl)amino)pyridin-4-yl)phenyl)propanoic Acid] | 1800
CCOc1ccccc1O[C@@H]1CCCN(c2cncc(Nc3cc[nH]n3)n2)C1 [Example 19, (R)-6-(3-(2-ethoxyphenoxy)piperidin-1-yl)-N-(1H-pyrazol-3-yl)pyrazin-2-amine] | 1700
CCOc1ccccc1O[C@@H]1CCCN(c2cncc(Nc3cncc(-c4cccc(CC(C)(C)C(=O)O)c4)c3)n2)C1 [Example 47, (R)-3-(3-(5-((6-(3-(2-ethoxyphenoxy)piperidin-1-yl)pyrazin-2-yl)amino)pyridin-3-yl)phenyl)-2,2-dimethylpropanoic Acid] | > 10000
CCOc1ccccc1O[C@@H]1CCCN(c2cncc(Nc3nc(C)c(C)s3)n2)C1 [Example 2, (R)—N-(6-(3-(2-ethoxyphenoxy)piperidin-1-yl)pyrazin-2-yl)-4,5-dimethylthiazol-2-amine] | 6500
CCOc1ccccc1O[C@@H]1CCCN(c2cncc(Nc3nc4cc(/C=C/C(=O)O)ccc4o3)n2)C1 [Example 15, (R,E)-3-(2-((6-(3-(2-ethoxyphenoxy)piperidin-1-yl)pyrazin-2-yl)amino)benzo[d]oxazol-5-yl)acrylic Acid] | 7300
CCOc1ccccc1O[C@@H]1CCCN(c2cncc(Nc3cc(-c4ccc(CC(C)(C)C(=O)O)cc4)ccn3)n2)C1 [Example 45, (R)-3-(4-(2-((6-(3-(2-ethoxyphenoxy)piperidin-1-yl)pyrazin-2-yl)amino)pyridin-4-yl)phenyl)-2,2-dimethylpropanoic Acid] | 770

Now from value to molecule:

IC50 [nM] | SMILES
480 | CCOc1ccccc1O[C@@H]1CCCN(c2cncc(Nc3ccnc(-c4cccc(OC(C)(C)C(=O)O)c4)n3)n2)C1 [Example 174, (R)-2-(3-(4-((6-(3-(2-ethoxyphenoxy)piperidin-1-yl)pyrazin-2-yl)amino)pyrimidin-2-yl)phenoxy)-2-methylpropanoic Acid]
160 | CCOc1ccccc1O[C@@H]1CCCN(c2cncc(Nc3nccc(N4CCC[C@@H](CC(=O)O)C4)n3)n2)C1 [Example 128, 2-((S)-1-(2-((6-((R)-3-(2-ethoxyphenoxy)piperidin-1-yl)pyrazin-2-yl)amino)pyrimidin-4-yl)piperidin-3-yl)acetic Acid]
260 | CCOc1ccccc1O[C@@H]1CCCN(c2cncc(Nc3ccnc(-c4ccc(C(C)(C)C(=O)O)cc4)n3)n2)C1 [Example 169, (R)-2-(4-(4-((6-(3-(2-ethoxyphenoxy)piperidin-1-yl)pyrazin-2-yl)amino)pyrimidin-2-yl)phenyl)-2-methylpropanoic Acid]
180 | CCOc1cccnc1O[C@@H]1CCCN(c2cncc(Nc3nccc(-c4ccc(CC(C)(C)C(=O)O)cc4)n3)n2)C1 [Example 154, (R)-3-(4-(2-((6-(3-((3-ethoxypyridin-2-yl)oxy)piperidin-1-yl)pyrazin-2-yl)amino)pyrimidin-4-yl)phenyl)-2,2-dimethylpropanoic Acid]
150 | CCOc1ccccc1O[C@@H]1CCCN(c2cncc(Nc3nccc(-c4cccc(CC(=O)O)c4)n3)n2)C1 [Example 140, (R)-2-(3-(2-((6-(3-(2-ethoxyphenoxy)piperidin-1-yl)pyrazin-2-yl)amino)pyrimidin-4-yl)phenyl)acetic Acid]
3500 | CCOc1ccccc1O[C@@H]1CCCN(c2nccc(Nc3cccc(-c4cccc(CC(C)(C)C(=O)O)c4)n3)n2)C1 [Example 66, (R)-3-(3-(6-((2-(3-(2-ethoxyphenoxy)piperidin-1-yl)pyrimidin-4-yl)amino)pyridin-2-yl)phenyl)-2,2-dimethylpropanoic Acid]
570 | CCOc1ccccc1O[C@@H]1CCCN(c2cncc(Nc3cccc(OCc4ccc(C(=O)O)cc4)n3)n2)C1 [Example 99, (R)-4-(((6-((6-(3-(2-ethoxyphenoxy)piperidin-1-yl)pyrazin-2-yl)amino)pyridin-2-yl)oxy)methyl)benzoic Acid]
270 | CCOc1cccnc1O[C@@H]1CCCN(c2cncc(Nc3cccc(-c4cc(CC(C)(C)C(=O)O)ccc4F)n3)n2)C1 [Example 79, (R)-3-(3-(6-((6-(3-((3-ethoxypyridin-2-yl)oxy)piperidin-1-yl)pyrazin-2-yl)amino)pyridin-2-yl)-4-fluorophenyl)-2,2-dimethylpropanoic Acid]
140 | CCOc1ccccc1O[C@@H]1CCCN(c2cncc(Nc3cccc(-c4ccc(CC(C)(C)C(=O)O)cc4)n3)n2)C1 [Example 72, (R)-3-(4-(6-((6-(3-(2-ethoxyphenoxy)piperidin-1-yl)pyrazin-2-yl)amino)pyridin-2-yl)phenyl)-2,2-dimethylpropanoic Acid]
87 | CCOc1cccnc1O[C@@H]1CCCN(c2cncc(Nc3cccc(Oc4cccc(CC(=O)O)c4)n3)n2)C1 [Example 96, (R)-2-(3-((6-((6-(3-((3-ethoxypyridin-2-yl)oxy)piperidin-1-yl)pyrazin-2-yl)amino)pyridin-2-yl)oxy)phenyl)acetic Acid]
400 | CCOc1ccccc1O[C@@H]1CCCN(c2cncc(Nc3cccc(-c4cc(OC(C)(C)C(=O)O)ccc4F)n3)n2)C1 [Example 84, (R)-2-(3-(6-((6-(3-(2-ethoxyphenoxy)piperidin-1-yl)pyrazin-2-yl)amino)pyridin-2-yl)-4-fluorophenoxy)-2-methylpropanoic Acid]
860 | CCOc1ccccc1O[C@@H]1CCCN(c2cncc(Nc3cccc(N4CCC[C@@H](C(=O)O)C4)n3)n2)C1 [Example 55, (R)-1-(6-((6-((R)-3-(2-ethoxyphenoxy)piperidin-1-yl)pyrazin-2-yl)amino)pyridin-2-yl)piperidine-3-carboxylic Acid]
